How the values were obtained:
[1] = tested on: gastric acid secretion induced by histamine; experiment: Inhibitory action against the gastric acid secretion induced by histamine (perfused stomach, anesthetized rats); assay type: in vivo; details: Rattus norvegicus, 1 h; male Donryu rats, urethane anesthesia; compound injected before histamine dihydrochloride 5 mg/kg i.v.; acid output during 60 min; read-out: ED50, dose to inhibit 50% of acid output of the control
Experimental: Inhibitory action of a test compound against the gastric acid secretion induced by histamine was determined according to the method of Ghosh and Schild (M. N. Ghosh and H. O. Schild: Br. J. Pharmacol. 13, 54, 1958) with some modifications. Male Donryu rats weighing 200±10 g were deprived of food for 24 hr prior to the experiments, with water ad lib. Under the anesthesia with 1.2 g/kg of subcutaneous urethane, trachea and cervical vein were cannulated. With midline opening, the duodenum immediately below the junction with pylorus was incised and after the stomach was flashed with saline for several times, the polyethylene tube was inserted into the pylorus through the incision, and ligated with surrounding tissues keeping the blood vessels intact. The polyvinyl tube was inserted into the mouth up to the forestomach through the esophagus and ligated at the cervical level. Saline solution kept at 35° C. was perfused through the polyvinyl tube at the rate of 1 ml/min, and the perfusate was collected through the polyethylene tube of the pylorus. The perfusate was collected for 30 min and was titrated by 0.01N NaOH with phenolphthalein as an indicator to obtain a total acid output(mEq). Subsequently, the perfusate was collected for every 30 min. After the acid output became constant, the stomach was perfused for further 60 min. After that, in the control group, 0.1 ml of saline per 100 g of body weight was intravenously injected, 10 min later 5 mg/kg of histamine dihydrochloride was injected intravenously. The perfusate for 60 min after histamine injection was collected and determined the acidity. The amount of acid output during 60 min after histamine injection subtracted that for 60 min before histamine was regarded as the acid output response to histamine. In the test groups, following the injection of three compounds (A), (B) and (C) instead of saline, 5 mg/kg of histamine dihydrochloride was injected and acid output was determined. Decreased ratio of the acid output to the control was calculated as the response to the test compound. […]

Acute toxicity = details: mouse, in vivo, po, SLC-ddY male mice of aging 4 weeks
Experimental: To test the acute toxicity of each compound (A), (B) and (C), LD50 was determined using SLC-ddY male mice of aging 4 weeks.

histamine H2 receptor = target: T1, histamine H2 receptor (Cavia porcellus, UniProt P47747); experiment: Blocking action on histamine H2 receptor in vitro (positive chronotropic effect of histamine in spontaneously beating atria); details: negative logarithm of concentration required to shift dose-response of histamine to the right by 2-fold; guinea pig atria; read-out: pA2 (converted)
T1 construct: spontaneously beating atria of guinea pig in vitro; from tissue; host or cells: spontaneously beating guinea pig atria
Experimental: Histamine H2 receptor blocking activity of the compound was determined by obtaining the dose-response relationship of the positive chronotropic effect of histamine in spontaneously beating atria of guinea pig in vitro, in the absence and in the presence of a test compound. […] E. J. Ariens. Molecular Pharmacology, vol. 1, 153-156 (1964), Academic Press, New York).

T1 sequence (P47747 whole entry): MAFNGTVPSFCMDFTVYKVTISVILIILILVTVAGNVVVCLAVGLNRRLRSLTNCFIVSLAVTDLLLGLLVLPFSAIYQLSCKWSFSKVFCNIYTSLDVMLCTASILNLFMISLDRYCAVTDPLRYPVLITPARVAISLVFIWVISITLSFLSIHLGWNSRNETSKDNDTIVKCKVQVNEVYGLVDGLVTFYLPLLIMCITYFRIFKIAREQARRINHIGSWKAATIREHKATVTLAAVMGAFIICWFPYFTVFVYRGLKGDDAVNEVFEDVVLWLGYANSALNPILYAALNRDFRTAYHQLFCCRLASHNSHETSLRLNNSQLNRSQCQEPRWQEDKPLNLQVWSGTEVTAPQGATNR

Kb (histamine H2 receptor) [µM] | SMILES | ED50 [1] [mg/kg] | LD50 (Acute toxicity) [mg/kg]
 | O=CNCCCOc1cccc(CN2CCCC2)c1 [compound 6] | 0.84 | > 1000
0.0813 | COC(=O)c1ccc(C(=O)NCCCOc2cccc(CN3CCCC3)c2)cc1 [Example 5] |  | 
 | CC(=O)NCCCOc1cccc(CN2CCCC2)c1 [compound 4, 3-(3-acetamidopropoxy)-1-(1-pyrrolidinylmethyl)benzene] | 1.65 | > 1000
0.191 | O=C(NCCCOc1cccc(CN2CCCC2)c1)c1ccccc1 [Example 2] |  | 
 | O=C(NCCCOc1cccc(CN2CCCC2)c1)c1cccnc1 [A] | 1.25 | > 1000
0.1 | O=C(NCCCOc1cccc(CN2CCCC2)c1)c1ccc([N+](=O)[O-])cc1 [Example 7] |  | 
0.186 | O=C(NCCCOc1cccc(CN2CCCC2)c1)c1cc(-c2ccccc2)on1 [Example 8] |  | 
0.138 | O=C(NCCCOc1cccc(CN2CCCC2)c1)c1cccs1 [Example 3] |  | 

SMILES | Kb (histamine H2 receptor) [µM] | ED50 [1] [mg/kg] | LD50 (Acute toxicity) [mg/kg]
CC(=O)NCCCOc1cccc(CN2CCCC2)c1 [Example 4] | 0.195 |  | 
O=CNCCCOc1cccc(CN2CCCC2)c1 [Example 6] | 0.17 |  | 
O=C(NCCCOc1cccc(CN2CCCC2)c1)c1cccnc1 [Example 1] | 0.129 |  | 

— patent US4482566A, “Substituted aminoalkylbenzene type lower acylamides” (Teikoku Hormone Mfg. Co., Ltd., priority 1979, dated 1984)
